What was measured:
Type in all cases: cell-based
mouse C57BL/6 T cells = experiment: pSTAT1 signaling in IFNα-stimulated T cells, flow cytometry; settings: T-cell, 10 uM compound, T cells stimulated for 5 hours by IFNα, read-out: % pSTAT1 in cells treated with subject compounds relative to negative control (DMSO)
Method: IFNα signaling in mouse C57BL/6 T cells promotes activation of multiple signaling pathways associated with antitumor responses. A key target of this signaling is phosphorylation of the transcription factor STAT1. […] T cells are stimulated for 5 hours by IFNα in the presence or absence of exemplified compounds disclosed herein (e.g., PTPN2 inhibitors) and stained intracellularly with antibodies for phosphorylated STAT1 and then analyzed by flow cytometry. Enhancement of phosphorylation of STAT1 is read out as a percentage over the DMSO control.

[1] = system: B16F10 mouse melanoma cells; experiment: MHC expression associated with IFNγ signaling, flow cytometry; settings: B16-F10, 3 uM compound, 48 hours, normalized to DMSO/with IFNγ control, read-out: % MHC in cells treated with Compound at 3 uM relative to negative control (DMSO)
Method: B16F10 mouse melanoma cells (ATCC Cat #CRL-6475, Manassas, VA) are seeded at approximately a density of 500 cells per well in a 384-well clear bottom plate (Corning Cat #3765, Corning, 5 NY) in 25 μL total volume of DMEM+10% FBS (Sigma Cat #D6429 and Sigma Cat #F4135, St. Louis, MO). Cells are allowed to adhere overnight at 37° C.+5% CO2. On the following day, 12.5 μL of mouse IFNγ (RD systems Cat #485-MI/CF, Minneapolis, MN) is added to half of the plate (columns 13-24) at a concentration of 2 ng/mL for a final assay concentration of 0.5 ng/mL of IFNγ. Media only (12.5 μL of DMEM+10% FBS) is added to the remainder of the 10 plate (columns 1-12). Next, compounds resuspended in DMSO (Sigma Cat #D2650) at 100 mM are diluted in semi-log dilutions in DMSO ranging from 100 mM to 0.001 mM and DMSO only controls are included. The compound/DMSO dilutions are further diluted 1:250 in DMEM+10% FBS, and 12.5 μL of these dilutions are added in triplicates to cells of both treatment arms (with and without IFNγ). Compounds are only dosed in the inner 240 wells, avoiding the outer 2-well perimeter of the plate to minimize edge effects. Finally, the plate is loaded into an IncuCyte® S3 Live Cell Analysis System (Essen Bioscience-Sartorius, Ann Arbor, MI) maintained in a 37° C.+5% CO2 incubator, allowed to equilibrate for 2 hours, and treated for 48 hours. MHC levels are measured by flow cytometry using a FITC anti-mouse H-2kb antibody (clone AF6-88.5), and levels are normalized based on DMSO/with IFNγ control. Table 7 below summarizes the percentage in MHC expression in cells treated with or without compounds disclosed herein at a specified concentration.

OT-1 cells = experiment: T-cell activation: intracellular production of IFNγ and TNFα in exhausted OT-1 cells; settings: 10 uM compound, OT-1 cells restimulated with 1 μM OVA, read-out: % TNFa + /IFNg + production in compound-treated cells (uM compound) relative to negative control (DMSO)
Method: 1*10^6 OT-1 cells are seeded in a 24well in a volume of 1 mL of RPMI/10% FCS, and activated with 10 nM OVA protein for 48 h. Cells are then split 1:4 into 96well plates after two washes in warm media. To induce exhaustion, cells are then expanded for 3 days in the presence of vehicle control or a compound described herein (e.g., PTPN2 inhibitor) various concentrations, as well as 5 ng/ml IL-7 and 5 ng/ml IL-15, with the addition of fresh OVA on each day. After this point, cells are treated with Brefeldin A and restimulated with 1 μM of OVA for 4-6h, and cells are stained to assess production of IFNγ and TNFα intracellularly by flow cytometry. The results are shown as increase in percentage production of IFNγ and TNFα in cells treated with an exemplified compound at 10 uM, relative to a negative control (DMSO) of cells without being treated with the compound but merely DMSO (a solvent in which exemplified compounds are dissolved). See Table 10 below summarizes percentage increase in IFNγ and TNFα intracellular production in cells treated with an exemplified compound (at 10 uM) or without it, relative to a negative control (DMSO).

| Structure (SMILES) | activity at 10 µM (mouse C57BL/6 T cells) [%] | activation at 3 µM [1] [%] | activity at 10 µM (OT-1 cells) [%] |
| --- | --- | --- | --- |
| CC(C)CCOc1ccc2cc(O)c(N3CC(=O)NS3(=O)=O)c(F)c2n1 [Compound 135, 5-(8-fluoro-6-hydroxy-2-(isopentyloxy)quinolin-7-yl)-1,2,5-thiadiazolidin-3-one 1,1-dioxide] | 255 | > 10 | 504 |
| COc1ccc2cc(O)c(N3CC(=O)NS3(=O)=O)c(F)c2n1 [Compound 154] | 303 | > 10 | 152 |
| CNc1ccc2cc(O)c(N3CC(=O)NS3(=O)=O)c(F)c2n1 [Compound 153] | 249 | > 10 | 132 |
| CN1CCCC(COc2ccc3cc(O)c(N4CC(=O)NS4(=O)=O)c(F)c3n2)C1 (stereo not drawn) [Compound 176] | 229 | > 10 | 193 |
| O=C1CN(c2c(O)cc3ccc(OCC4CCS(=O)(=O)CC4)nc3c2F)S(=O)(=O)N1 [Compound 143] | 161 | > 10 | 174 |
| CC(C)CCNc1ccc2cc(O)c(N3CC(=O)NS3(=O)=O)c(F)c2n1 [Compound 117] | 210 | > 10 | 236 |
| CN(C)CCOc1ccc2cc(O)c(N3CC(=O)NS3(=O)=O)c(F)c2n1 [Compound 178] | 172 | > 10 | 168 |
